Assay results from ChEMBL document CHEMBL3507680, “University of Dundee, Gates Library screen for HepG2 cell viability”.

Experiment: Human HepG2 cell viability assay in 384 well format
Type: toxicity, cell-based
Set-up: dose 125 nL, time 70.5 hour; concentration not given beside the values
Details: HepG2 cells, read-out: Inhibition

| Compound | cytotoxicity at 70.5 h [%] |
| --- | --- |
| O=c1[nH]c2cc3c(cc2cc1CN1CCCC1c1ccccn1)OCO3 (configuration not stated) | -4.33 |
| CC1=N[C@@]2(CC[C@@H]3CN(C(=O)NCCc4ccccc4)C[C@@H]32)C(=O)N1 | 7.76 |
| CS(=O)(=O)N1CCN(C(=O)c2[nH]c3ccc(Cl)cc3c2Cl)CC1 | -6.15 |
| CNC(=O)[C@H]1C[C@@H]2CN(S(=O)(=O)c3ccc(F)cc3)C[C@@H]2N1C | 5.56 |
| CCN(CC)C(=O)COc1nc(C(C)C)no1 | 18.3 |
| O=C(COc1ccccc1C(F)(F)F)NCCNC(=O)c1ccccc1 | 12.9 |
| COc1ccccc1CN(Cc1nc(C)no1)C1CC1 | -20.3 |
| Cc1noc(C)c1CN(C)C(=O)c1ccc(O)nc1 | -5.72 |
| O=C(CCNc1ncccn1)NCc1ccc(Br)s1 | -11.3 |
| O=C(CC1OCCc2ccsc21)NCC1CC1 (configuration not stated) | -1.8 |
| Cc1nc(CN(C)C(=O)C2CC(=O)N(c3cccc(O)c3)C2)cs1 (configuration not stated) | -2.8 |
| Cc1cc(C(=O)OCC2CCCN2C(N)=O)c(C)o1 (configuration not stated) | -6.63 |
| Cc1nc(C2CCN(S(C)(=O)=O)CC2)nc2c1CCC(=O)N2CC(C)C | -1.36 |
| CC(=O)N1CC2(CCN(c3nccc4ccccc34)CC2)CC1C(=O)O (configuration not stated) | -9.28 |
| CCn1ccnc1CN1CCC(Oc2ccccc2F)(C(=O)O)CC1 | -0.995 |
| CCCNC(=O)Cc1c(C)nc2c(c1C)c(=O)[nH]n2C | 1.36 |
| Cc1cccc(N2CCN(C(=O)CCCC(=O)N(C)C)C(C)C2)n1 (configuration not stated) | -18.7 |
| N#Cc1cccc(OCCN2CCNC(=O)C2c2cccs2)c1 (configuration not stated) | -6 |
| O=C1NCCCCC1SCc1coc(-c2ccccc2)n1 (configuration not stated) | -2.46 |
| CN(CCCNC(=O)C1CCc2cn[nH]c2C1)c1ccc(F)cc1 (configuration not stated) | 16.9 |
| O=C(C1CC=CC1)N1C[C@H]2CN(Cc3ccncc3)C(=O)[C@H]2C1 | 2.42 |
| O=C(NC1(c2nccs2)CCCC1)c1cc(C2CC2)[nH]n1 | -2.38 |
| COc1ccccc1OC1CCN(C(=O)c2c[nH]c(=O)[nH]c2=O)CC1 | -4.88 |

| Compound | cytotoxicity at 70.5 h [%] |
| --- | --- |
| COC(=O)COc1c(F)cc(Br)cc1C(C)=O | -2.7 |
| CN1CCN(Cc2cnc3n2CCN(C(=O)c2cscn2)C3)CC1 | -3 |
| OCCN(Cc1cccnc1)c1ncc(Br)cn1 | -2 |
| CNC(=O)C1CCC2(CCN(c3nncs3)CC2)CO1 (configuration not stated) | -2.99 |
| CN(C)CCN(C)C(=O)Cn1cccc2cc(-c3ccc(F)cc3)nc1-2 | 4.32 |
| Cc1cc(C(F)(F)F)nn1CC(C)C(=O)Nc1ccncc1 (configuration not stated) | 1.22 |
| CN(C1CCCCC1)S(=O)(=O)NC1CCN(c2ncccn2)CC1 | -7.52 |
| Cc1cnc(N)c(C(=O)C2CCN(C(=O)c3ccccc3F)CC2)c1 | -11.6 |
| Cc1nccc(C2CCCCN2Cc2ccccc2)n1 (configuration not stated) | -5 |
| Cc1nc2c(NCC(C)N(C)c3ccccc3)ncnc2o1 (configuration not stated) | -5.13 |
| Cc1ccc(C(=O)N2CCC3(CC2)CC(c2ccccc2)C(=O)N3)cn1 (configuration not stated) | 0.473 |
| CNC(=O)[C@@H]1C[C@H]2CN(Cc3ccc(C)s3)C[C@H]2N1C(C)=O | -1.67 |
| CO[C@@H]1CCN(S(=O)(=O)c2cn(C)cn2)[C@H]1Cc1ccccc1 | -1.49 |
| COc1c(CNCc2ccc(CN3CCOCC3)cc2)c(C)nn1C | 5.61 |
| CC1=C[C@@H](CC#N)[C@H](C(C)C)C[C@H]1CC(=O)N1CCN(CCO)CC1 | -8.18 |
| Cc1ccc(N2CCCN(C(=O)CC3CCCO3)CC2)nn1 (configuration not stated) | -18.7 |
| Cc1nc(O)cc(CCNC(=O)C2CC(=O)N(CC(C)C)C2)n1 (configuration not stated) | -8.39 |
| c1cncc(CN2CCC3(COCCN(C4CCOCC4)C3)C2)c1 (configuration not stated) | -6.19 |
| c1ccc(-c2nc(CN3CCCC(Cn4cncn4)C3)no2)cc1 (configuration not stated) | 2.09 |
| CC(C)N1CCOCC2(CCCN(C(=O)c3cncn3C)C2)C1 (configuration not stated) | -8.05 |
| CC[C@@]1(O)CCN(C(=O)c2cccc3cc(C)oc23)C[C@H]1O | 6.9 |
| CS(=O)(=O)N1CC2(CCN(CC3CC3)C2)Cc2ccccc21 (configuration not stated) | -6.8 |
| O=C(NCCNC(=O)c1scnc1Cl)c1cccs1 | -14.2 |

| Compound | cytotoxicity at 70.5 h [%] |
| --- | --- |
| CNc1cccc(C2CCCN(C(=O)Cc3ccccc3)C2)n1 (configuration not stated) | -7.78 |
| Cn1ncc2c1C(COCC1CC1)N(C(=O)c1ccncn1)CC2 (configuration not stated) | 5.78 |
| Cc1nccn1-c1cncc(C2CCCN2Cc2cccnc2)n1 (configuration not stated) | 19.3 |
| CN1CCc2[nH]nc(C(=O)N3CCC4(CCCO4)CC3)c2C1 | -0.824 |
| CN(C)CCN1CCC(CNCc2c[nH]nc2C(C)(C)C)CC1 | 28.4 |
| CCCn1c(C)c(CC(=O)NCC(C)O)c2c1CC(C)(C)CC2=O (configuration not stated) | 2.45 |
| Cc1nccn1CCC1CCCCN1Cc1ccc(N(C)C)nc1 (configuration not stated) | -10.4 |
| CCC(=O)Nc1cccc(C(=O)NCCC2=CSC3=NCCCN23)c1 | -7.59 |
| COc1cc(N2C[C@H](C(=O)NC3CC3)[C@@H]3CCO[C@@H]3C2)ncn1 | -7.61 |
| CCSCCC(=O)Nc1ncn(CC(=O)NCc2ccccc2)n1 | -7.93 |
| Cc1noc([C@@H]2C[C@H]3OCC[C@H]3N(S(=O)(=O)N(C)C)C2)n1 | -0.423 |
| Cn1nc(C2CN(C(=O)c3cccnc3)C2)c2nccnc21 | -3.75 |
| CC(=O)N1CCN(C(=O)Nc2ccc(Cl)cc2)[C@H]2CS(=O)(=O)C[C@H]21 | -2.86 |
| COCCn1ccc2c(NC(=O)c3n[nH]c4c3CCCC4)cccc21 | 7.53 |
| Cc1cc(NCC2CC(=O)Nc3ccccc32)nc(C)n1 (configuration not stated) | -1.89 |
| Cc1cc(C(=O)N2C[C@@H]3[C@@H](C2)OCC(=O)N3CC2CC2)no1 | -13.6 |
| CCc1cnc(N2CC3(CCN(S(=O)(=O)C4CC4)C3)C2)nc1 | -8.49 |
| CC(C)NC(=O)CC(C)NCc1ccc(F)cc1Cl (configuration not stated) | -3.7 |
| CCCn1cc(-c2cc(-c3cc(CC)n[nH]3)c(C#N)c(N)n2)c(C)n1 | -3.18 |
| COCCN1CCN(C(=O)C[C@@H]2C[C@@H](C(C)C)[C@H](CC#N)C=C2C)CC1 | 1.71 |
| CC(C)COCC1CN(Cc2ccsc2)Cc2ncn(C)c21 (configuration not stated) | -9.98 |
| CN(C)C(=O)C1CCC2(CCN(C(=O)Nc3ccc(F)cc3)CC2)O1 (configuration not stated) | -12.4 |
| NC(=O)c1cnc2n1CCN(C(=O)c1ccc(-c3cc[nH]n3)cc1)C2 | -10.3 |

| Compound | cytotoxicity at 70.5 h [%] |
| --- | --- |
| CNC(=O)C1CCCN(c2nc(-c3ccco3)nc3c2CCNCC3)C1 (configuration not stated) | -4.06 |
| CS(=O)(=O)c1ccc(C(=O)NCCNc2ncccn2)cc1 | -12.6 |
| c1cnc(N2CC3(CCN(C4CCOC4)CC3)c3ccccc32)nc1 (configuration not stated) | -6.16 |
| CN(Cc1cccnc1)CC1CCCN1c1cccnn1 (configuration not stated) | 13.1 |
| N#CCCCS(=O)(=O)NC1(c2cccc(Br)c2)CC1 | -8.99 |
| COCCN1C(=O)C2(CCN(CC3CC3)CC2)c2ccccc21 | 0.205 |
| COC(=O)C(c1cc(F)ccc1F)N(C)C(=O)c1cccnc1O (configuration not stated) | 0.116 |
| COCc1nc(CN2CC(C)(c3ccccc3)CCC2=O)no1 (configuration not stated) | -6.99 |
| Cc1cnc(C(=O)N2CCC3(CC2)CC(c2ccccc2)C(=O)N3)cn1 (configuration not stated) | 8.04 |
| COc1ccc(-c2nonc2N)cc1 | -0.886 |
| CCOc1ccccc1-n1c(CNC)n[nH]c1=O | -2.54 |
| COC(=O)c1ccc(C2SCC(=O)Nc3c2cnn3C2CCCC2)cc1 (configuration not stated) | -12.4 |
| CC(C)(C(=O)O)S(=O)(=O)c1ccc(Br)cc1 | 0.0653 |
| CCn1cc(CNCCNc2ncc(Cl)cc2Cl)cn1 | 10.4 |
| Cc1noc(C2CN(S(=O)(=O)C3CC3)Cc3ccnn3C2)n1 (configuration not stated) | 10.2 |
| Cc1cc(C)n(CC2CCCCN2C(=O)c2ccc3[nH]nnc3c2)n1 (configuration not stated) | -17.7 |
| CC(C)OCCOCc1cccc(NC(=O)NCc2ccccn2)c1 | -8.39 |
| CC(C)c1nc(C2CCCN(C(=O)CS(=O)(=O)C(C)C)C2)no1 (configuration not stated) | -7.77 |
| Cc1nc2n(n1)CCN(S(=O)(=O)c1ccc(Cl)cc1)C2 | -3.28 |
| COc1cccc(C(=O)Nc2ccc(OCCC(N)=O)cc2)c1OC | -5.04 |
| CC(C(=O)NCCOc1cccc(Cl)c1)n1cncn1 (configuration not stated) | -9.41 |
| Cc1ccsc1C(=O)N1CCC(Nc2cccnc2)CC1 | -4.2 |
| CCc1nccc(CN2CCCC(c3nn(C)c(=O)n3CC)C2)n1 (configuration not stated) | -3.33 |

| Compound | cytotoxicity at 70.5 h [%] |
| --- | --- |
| CCCSc1nn(CCN(C)C)c2nc3sc(C)c(CC)c3c(=O)n12 | 32.5 |
| O=C(c1cscn1)N1CC[C@@H]2[C@@H]1CCN2CC1CCOCC1 | -1.87 |
| COc1ccc(CN2C[C@@H](F)[C@@H](OCc3nc4cnccc4[nH]3)C2)cn1 | -4.62 |
| CCN(C(=O)COC)C(c1cccnc1)c1cc(C)cc(C)c1 (configuration not stated) | 13.8 |
| CCN1C[C@@H]2CN(C(=O)c3cccn3C)C[C@@H]2C1=O | 8.28 |
| COc1ccc(-c2n[nH]cc2CN(C)CCc2scnc2C)c(F)c1 | 1.84 |
| Cc1ccc(NC(=O)N2CCN(C(=O)CC3CCCC3)CC2)s1 | -10.2 |
| COc1ccc(C(=O)NCC(c2cccn2C)N2CCN(C)CC2)cc1 (configuration not stated) | -4.93 |
| CC1CCC(N2Cc3nc(N)ncc3C2=O)CC1 (configuration not stated) | -12.4 |
| CCOc1ccc(C(=O)N2CCCC(n3ccnc3C)C2)cc1OC (configuration not stated) | -7.46 |
| COc1ccccc1C1(CNc2snc(Cl)c2C#N)CCCC1 | 19.8 |
| CCOc1cccc(CNC(C)c2ccc(-n3ccnc3)cc2)c1O (configuration not stated) | 2.29 |
| COc1cc(CCC(=O)N2CCC(c3cnccn3)CC2)on1 | -1.25 |
| Cc1cnc(NCc2cnn(C)c2)nc1-c1cnn(C)c1 | 13.5 |
| CC1(Cc2ccc(Cl)cc2)Cc2cc(CCC(=O)O)ccc2O1 (configuration not stated) | -6.16 |
| CCC(=O)NCC(=O)NCc1cc(Br)ccc1OC(F)F | -5.29 |
| CCn1nc(CC(C)C)cc1C(=O)N1CC(c2ccncc2)C1 | -4.86 |
| CC(NC(=O)c1cccs1)C(=O)NCc1cccnc1N1CCCCC1 (configuration not stated) | -16.1 |
| O=C(c1ccccc1)N1CCC2(CC1)CNc1c(F)cccc12 | -7.65 |
| c1cnn(CCN2CCOC(Cn3cccn3)C2)c1 (configuration not stated) | -4.95 |
